Measurements published in patent US9718770B2, “Substituted thioureas as heat shock protein 70 inhibitors” (Institute of Pharmacology and Toxicology Academy of …, priority 2013, dated 2017).
One block for each molecule: values may come before it.

Experiments:
[1] = test system: BT474; test: CDI of example compounds and Lapatinib (ATPlite cell survival); format: cell-based; design: key: CDI = AB/(A×B); <1 synergistic; settings: compound 5 μM + Lapatinib 1 μM, 72 h; Lapatinib-sensitive human breast cancer cells; CDI<1 synergistic, <0.7 very significant, >1 antagonistic
Method: (§1) Cells: (BT474 and SK-BR3 are Lapatinib-sensitive human breast cancer cell strains; BT/LapR and SK/LapR are secondary Lapatinib-resistant human breast cancer cell strains upon Lapatinib stimulation; MDA-MB-361 and MDA-MB-453 are natural Lapatinib-resistant human breast cancer cell strains. BT474, MDA-MB-361, SK-BR3 and MDA-MB-453 are from American Type Culture Collection (ATCC))
(§2) In a 100 mm culture dish full of adherent cells, digestion with 1 ml 0.25% pancreatin (GIBCO) was carried out at 37° C. for 5 min, and the reaction was stopped with 2 ml medium (containing 10% FBS, GIBCO). The cells were dispersed and collected. After cell count, the cells were diluted to a concentration of 1×10^5 cells/ml, and were seeded to a 96-well plate at 50 μl/well, 5000 cell/well, 60 wells in total, PBS instead of cells was added to the wells of the outmost circle, and the incubation was carried out at 37° C. for 24 h for adherence.
(§3) For the sample group, samples to be tested were diluted with DMSO to a final concentration of 5 μM; to control wells, the medium containing the same concentration of solvent corresponding to the compound was added, the concentrations of the compounds were identical in each well, 5 wells in parallel were set for each concentration, 25 μL/well, and 25 μL medium was added to each well (for the combination group, 25 μL Lapatinib was added to reach a final concentration of 1 μM). The incubation was carried out at 37° C. for 72 h.
(§4) To each well, 50 μL ATPlite kit substrate solution was added. The plate was under shaking for 3 min, and was then placed in dark for 10 min. The lysis supernatant was drawn at 100 μL/well, and placed in a luminescent plate. The incubated luminescent plate was placed in an iluminescence apparatus, and the iluminescent value was read.
(§5) Data Processing Cell survival rate (%)=Experimental group RLU/control group RLU×100%
(§6) Coefficient of drug interaction (CDI) is used to evaluate the interaction of two drugs, CDI is calculated in accordance with the following formula: CDI=AB/(A×B)×100%. The calculation is performed according to the number of live cells (luminescent value), if CDI<1, the two drugs have a synergistic effect; if CDI<0.7, the synergistic effect is very significant; if CDI=1, the effect of the two drugs in combination is the sum of the effects of the two drugs; if CDI>1, the two drugs have an antagonistic effect.

[2] = test system: MDA-MB-361; test: as above; format: cell-based; design: key: CDI = AB/(A×B); <1 synergistic; settings: compound 5 μM + Lapatinib 1 μM, 72 h; natural Lapatinib-resistant human breast cancer cells; CDI<1 synergistic
Method: as §1, §2, §3, §4, §5, §6

[3] = test system: MDA-MB-453; test: as above; format: cell-based; design: key: CDI = AB/(A×B); <1 synergistic; settings: compound 5 μM + Lapatinib 1 μM, 72 h; natural Lapatinib-resistant human breast cancer cells; CDI<1 synergistic
Method: as §1, §2, §3, §4, §5, §6

[4] = test system: SK-BR3; test: as above; format: cell-based; design: key: CDI = AB/(A×B); <1 synergistic; settings: compound 5 μM + Lapatinib 1 μM, 72 h; Lapatinib-sensitive human breast cancer cells; CDI<1 synergistic
Method: as §1, §2, §3, §4, §5, §6

[5] = test system: BT/Lap^R1.0; test: as above; format: cell-based; settings: compound 5 μM + Lapatinib 1 μM, 72 h; secondary Lapatinib-resistant human breast cancer cells; CDI<1 synergistic
Method: as §1, §2, §3, §4, §5, §6

[6] = test system: SK/Lap^R1.0; test: as above; format: cell-based; settings: compound 5 μM + Lapatinib 1 μM, 72 h; secondary Lapatinib-resistant human breast cancer cells; CDI<1 synergistic
Method: as §1, §2, §3, §4, §5, §6

[7] = target: T1, Hsp70 ATPase (Homo sapiens, UniProt P0DMV8); test: Inhibition of Hsp70 ATPase activity (malachite green); format: biochemical; settings: 200 μM; repeated screening carried out twice; Hsp70/Hsp40, 1 mM ATP; read-out: Inhibitory rate (%) on activity of Hsp70 ATPase
T1 construct: made in house; host or cells: E. coli
T1 sequence (P0DMV8 2-641 limits assumed): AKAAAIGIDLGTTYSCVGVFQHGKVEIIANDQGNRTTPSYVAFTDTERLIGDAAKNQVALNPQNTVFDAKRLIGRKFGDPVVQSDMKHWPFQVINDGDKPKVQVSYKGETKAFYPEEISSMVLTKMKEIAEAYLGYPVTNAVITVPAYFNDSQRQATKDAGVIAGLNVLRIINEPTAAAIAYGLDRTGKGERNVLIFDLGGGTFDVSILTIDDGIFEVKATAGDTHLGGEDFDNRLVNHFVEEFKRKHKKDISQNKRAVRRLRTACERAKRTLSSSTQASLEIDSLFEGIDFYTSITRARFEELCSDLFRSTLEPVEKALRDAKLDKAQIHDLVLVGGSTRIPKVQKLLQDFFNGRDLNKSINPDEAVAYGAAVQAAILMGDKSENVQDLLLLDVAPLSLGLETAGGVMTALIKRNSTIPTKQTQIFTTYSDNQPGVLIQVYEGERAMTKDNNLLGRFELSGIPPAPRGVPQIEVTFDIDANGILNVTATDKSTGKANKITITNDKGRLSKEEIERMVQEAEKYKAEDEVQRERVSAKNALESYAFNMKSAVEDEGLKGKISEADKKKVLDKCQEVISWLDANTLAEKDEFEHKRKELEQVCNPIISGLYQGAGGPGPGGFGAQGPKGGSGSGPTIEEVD
Method: (1) Protein: Humanized Hsp70, Hsp40, expressed by E. coli.
(2) Sample to be tested: 26 compound solids with different colors and states. Positive drugs AZ (CAS:1054543-47-3) and VER 155008 (CAS: 1134156-31-2) were synthesized in the laboratory.
(4) ATPase Assay buffer: • 0.017% Triton X-100; • 100 mM Tris-HCl; • 20 mM KCl; • 6 mM MgCl2, pH 7.4.
1) 13.08 μl DnaK (0.15 mg/mL, 2.14 μM), 1.96 μl DnaJ (1 mg/mL, 25 μM) were dissolved in 7.96 μl Assay Buffer (0.017% Triton X-100, 100 mM Tris-HCl, 20 mM KCl, and 6 mM MgCl2, pH 7.4), and the resultant solution was added to each well of the 96 well plate;
2) to each well of the 96 well plate, 1 μL sample to be tested (5 mM) or DMSO (solvent) was added, and vortexed with a Vortex agitator for 10 min; and then standing at 37° C. for 30 min;
3) to each well, 1 μL 25 mM ATP was added, to trigger the enzymatic reaction; (in each well, the final reaction volume was 25 μL, the final concentration of DnaK was 1.12 μM, the final concentration of DnaJ was 1.96 μM, the final concentration of DMSO was 4%, the final concentration of Triton X-100 was 0.01%, the final concentration of ATP was 1 mM, and the final concentration of sample to be tested was 200 μM), the enzymatic reaction was carried out at 37° C. for 3 h;
4) 80 μL Malachite green staining solution was then added to each well, and was vortexed gently;
5) 10 μL of 34% citrate sodium was then added immediately, and vortexed gently, to stop the ATP hydrolysis not caused by ATPase;
6) the resultant mixture was mixed thoroughly at 37° C. for 15 min, and OD620 was measured.
The inhibitory rate of Hsp70 ATPase activity is calculated in accordance with the following formula: Inhibitory rate (%)=(DMSO well OD−Experimental well OD)/(DMSO well OD−Blank well OD)×100
Criteria for preliminary screening: during preliminary screening, an example compound is regarded as effective in inhibition as long as its inhibitory rate is above 20% for Hsp70 ATPase at 200 μM.

Structure (SMILES): COc1cc(/C=C/C(=O)NC(NC(=S)Nc2ccccn2)C(C)C)cc(OC)c1OC (centres unmarked) [Example 35, (2E)-N-[2-methyl-1-(3-pyridin-2-ylthioureido)propyl]-3-(3,4,5-trimethoxyphenyl) acrylamide]
CDI of example compounds and Lapatinib, BT474 [1]: 0.96 | CDI of example compounds and Lapatinib, MDA-MB-361 [2]: 0.86 | CDI of example compounds and Lapatinib, MDA-MB-453 [3]: 1.37 | CDI of example compounds and Lapatinib, SK-BR3 [4]: 0.99 | CDI of example compounds and Lapatinib, BT/Lap^R1.0 [5]: 1.04 | CDI of example compounds and Lapatinib, SK/Lap^R1.0 [6]: 0.9 | inhibition at 200 µM [7]: -6.13%

Structure (SMILES): COc1cc(/C=C/C(=O)NC(CC(C)(C)C)NC(=S)Nc2ccccn2)cc(OC)c1OC (centres unmarked) [Example 34, (2E)-N-[3,3-dimethyl-1-(3-pyridin-2-ylthioureido)butyl]-3-(3,4,5-trimethoxyphenyl) acrylamide]
CDI of example compounds and Lapatinib, BT474 [1]: 0.98 | CDI of example compounds and Lapatinib, MDA-MB-361 [2]: 0.87 | CDI of example compounds and Lapatinib, MDA-MB-453 [3]: 1.41 | CDI of example compounds and Lapatinib, SK-BR3 [4]: 0.98 | CDI of example compounds and Lapatinib, BT/Lap^R1.0 [5]: 1 | CDI of example compounds and Lapatinib, SK/Lap^R1.0 [6]: 0.85 | inhibition at 200 µM [7]: 9.36%

Structure (SMILES): O=C(/C=C/c1ccccc1)NC(NC(=S)Nc1ccccn1)C1CC1 (centres unmarked) [Example 37, (2E)-N-[cyclopropyl-(3-pyridin-2-ylthioureido)-methyl] cinnamamide]
CDI of example compounds and Lapatinib, BT474 [1]: 0.98 | CDI of example compounds and Lapatinib, MDA-MB-361 [2]: 0.99 | CDI of example compounds and Lapatinib, MDA-MB-453 [3]: 1.34 | CDI of example compounds and Lapatinib, SK-BR3 [4]: 0.99 | CDI of example compounds and Lapatinib, BT/Lap^R1.0 [5]: 1.02 | CDI of example compounds and Lapatinib, SK/Lap^R1.0 [6]: 1.03 | inhibition at 200 µM [7]: 1.51%

Structure (SMILES): COc1cc(/C=C/C(=O)NC(CC(C)(C)C)NC(=S)Nc2ccccc2)cc(OC)c1OC (centres unmarked) [Example 32, (2E)-N-[3,3-dimethyl-1-(3-phenylthioureido)butyl]-3-(3,4,5-trimethoxyphenyl)acrylamide]
CDI of example compounds and Lapatinib, BT474 [1]: 0.65 | CDI of example compounds and Lapatinib, MDA-MB-361 [2]: 0.91 | CDI of example compounds and Lapatinib, MDA-MB-453 [3]: 1.42 | CDI of example compounds and Lapatinib, SK-BR3 [4]: 1.13 | CDI of example compounds and Lapatinib, BT/Lap^R1.0 [5]: 1.25 | CDI of example compounds and Lapatinib, SK/Lap^R1.0 [6]: 0.89 | inhibition at 200 µM [7]: 44.1%

Structure (SMILES): COc1cc(/C=C/C(=O)NC(NC(=S)Nc2ccccc2C)C(C)(C)C)cc(OC)c1OC (centres unmarked) [Example 44, (2E)-N-[2,2-dimethyl-1-(3-o-methylphenylthioureido)propyl]-3-(3,4,5-trimethoxyphenyl)acrylamide]
CDI of example compounds and Lapatinib, BT474 [1]: 0.94 | CDI of example compounds and Lapatinib, MDA-MB-361 [2]: 0.93 | CDI of example compounds and Lapatinib, MDA-MB-453 [3]: 1.12 | CDI of example compounds and Lapatinib, SK-BR3 [4]: 0.96 | CDI of example compounds and Lapatinib, BT/Lap^R1.0 [5]: 0.93 | CDI of example compounds and Lapatinib, SK/Lap^R1.0 [6]: 0.98 | inhibition at 200 µM [7]: 50.5%

Structure (SMILES): CC(C)(C)C(NC(=O)/C=C/c1ccccc1)NC(=S)Nc1ccccc1 (centres unmarked) [Example 40, (2E)-N-[2,2-dimethyl-1-(3-phenylthioureido)propyl] cinnamamide]
CDI of example compounds and Lapatinib, BT474 [1]: 0.85 | CDI of example compounds and Lapatinib, MDA-MB-361 [2]: 0.95 | CDI of example compounds and Lapatinib, MDA-MB-453 [3]: 1.37 | CDI of example compounds and Lapatinib, SK-BR3 [4]: 1.14 | CDI of example compounds and Lapatinib, BT/Lap^R1.0 [5]: 0.95 | CDI of example compounds and Lapatinib, SK/Lap^R1.0 [6]: 0.99 | inhibition at 200 µM [7]: 27.3%

Now from value to molecule, other results behind:

inhibition at 200 µM [7]: 25.9%
Structure (SMILES): CC(C)C(NC(=O)/C=C/c1ccccc1)NC(=S)NC1CCCCC1 (centres unmarked) [Example 55, N-[1-(3-cyclohexylthioureido)-2-methylpropyl] cinnamamide]
CDI of example compounds and Lapatinib, BT474 [1]: 0.89 | CDI of example compounds and Lapatinib, MDA-MB-361 [2]: 0.94 | CDI of example compounds and Lapatinib, MDA-MB-453 [3]: 1.41 | CDI of example compounds and Lapatinib, SK-BR3 [4]: 1.2 | CDI of example compounds and Lapatinib, BT/Lap^R1.0 [5]: 1.01 | CDI of example compounds and Lapatinib, SK/Lap^R1.0 [6]: 1.8

inhibition at 200 µM [7]: 46.2%
Structure (SMILES): COc1cc(/C=C/C(=O)NC(CC(C)C)NC(=S)NC2CCCCC2)cc(OC)c1OC (centres unmarked) [Example 51, (2E)-N-[1-(3-cyclohexylthioureido)-3-methylbutyl]-3-(3,4,5-trimethoxyphenyl) acrylamide]
CDI of example compounds and Lapatinib, BT474 [1]: 0.73 | CDI of example compounds and Lapatinib, MDA-MB-361 [2]: 1.09 | CDI of example compounds and Lapatinib, MDA-MB-453 [3]: 1.27 | CDI of example compounds and Lapatinib, SK-BR3 [4]: 0.96 | CDI of example compounds and Lapatinib, BT/Lap^R1.0 [5]: 0.94 | CDI of example compounds and Lapatinib, SK/Lap^R1.0 [6]: 1.38

inhibition at 200 µM [7]: 58.4%
Structure (SMILES): CC(C)CC(NC(=O)/C=C/c1ccccc1)NC(=S)NC1CCCCC1 (centres unmarked) [Example 54, N-[1-(3-cyclohexylthioureido)-3-methylbutyl] cinnamamide]
CDI of example compounds and Lapatinib, BT474 [1]: 0.77 | CDI of example compounds and Lapatinib, MDA-MB-361 [2]: 0.9 | CDI of example compounds and Lapatinib, MDA-MB-453 [3]: 1.2 | CDI of example compounds and Lapatinib, SK-BR3 [4]: 1.16 | CDI of example compounds and Lapatinib, BT/Lap^R1.0 [5]: 0.98 | CDI of example compounds and Lapatinib, SK/Lap^R1.0 [6]: 1.14

inhibition at 200 µM [7]: 28.8%
Structure (SMILES): COc1ccc(NC(=S)NC(NC(=O)/C=C/c2cc(OC)c(OC)c(OC)c2)C(C)C)cc1 (centres unmarked) [Example 50, (2E)-N-{1-[3-(4-methoxyphenyl)thioureido]-2-methylpropyl}-3-(3,4,5-trimethoxyphenyl) acrylamide]
CDI of example compounds and Lapatinib, BT474 [1]: 1.02 | CDI of example compounds and Lapatinib, MDA-MB-361 [2]: 0.97 | CDI of example compounds and Lapatinib, MDA-MB-453 [3]: 1.4 | CDI of example compounds and Lapatinib, SK-BR3 [4]: 1.06 | CDI of example compounds and Lapatinib, BT/Lap^R1.0 [5]: 1.02 | CDI of example compounds and Lapatinib, SK/Lap^R1.0 [6]: 0.96

inhibition at 200 µM [7]: 61.3%
Structure (SMILES): Cc1ccccc1NC(=S)NC(CC(C)C)NC(=O)/C=C/c1ccccc1 (centres unmarked) [Example 47, N-[3-methyl-1-(3-o-methylphenylthioureido)butyl] cinnamamide]
CDI of example compounds and Lapatinib, BT474 [1]: 0.84 | CDI of example compounds and Lapatinib, MDA-MB-361 [2]: 1.05 | CDI of example compounds and Lapatinib, MDA-MB-453 [3]: 1.39 | CDI of example compounds and Lapatinib, SK-BR3 [4]: 1.15 | CDI of example compounds and Lapatinib, BT/Lap^R1.0 [5]: 0.97 | CDI of example compounds and Lapatinib, SK/Lap^R1.0 [6]: 0.98
